Laboratory results taken from patent US20260001928A1 (CORTERIA PHARMACEUTICALS, priority 2022, published 2026).
*1 amine or outer side, *2 acyl side, *3 side chain or, on linkers, in order; H or OH if unused. Where a SMILES comes first, the peptide text is derived from it. Side-chain parts run from the residue outwards. [ ]: non-standard residue; d: D form. The star is where a group is joined. C20 diacid = O=C(O)CCCCCCCCCCCCCCCCCCC(=O)*; C18 diacid = O=C(O)CCCCCCCCCCCCCCCCC(=O)*; γGlu = O=C(O)[C@H](CCC(=O)[*:2])N[*:1]; NMeI = CC[C@H](C)[C@H](NC)C(=O)O; AEEA = NCCOCCOCC(=O)O; Aib = CC(C)(N)C(=O)O

Tests used:
human CRF2a receptor = target: T1, human CRF2a receptor (Homo sapiens, UniProt Q13324); test: Activity at human CRF2a receptor, cAMP functional assay in TeloHEAC cells; assay type: cell-based; conditions: TeloHEAC cells stably expressing human CRF2a receptor, relative to urocortin 2 (100 nM = 100%)
T1 construct: expressed in transfected cells; host or cells: TeloHEAC cells
T1 sequence (Q13324 1-411): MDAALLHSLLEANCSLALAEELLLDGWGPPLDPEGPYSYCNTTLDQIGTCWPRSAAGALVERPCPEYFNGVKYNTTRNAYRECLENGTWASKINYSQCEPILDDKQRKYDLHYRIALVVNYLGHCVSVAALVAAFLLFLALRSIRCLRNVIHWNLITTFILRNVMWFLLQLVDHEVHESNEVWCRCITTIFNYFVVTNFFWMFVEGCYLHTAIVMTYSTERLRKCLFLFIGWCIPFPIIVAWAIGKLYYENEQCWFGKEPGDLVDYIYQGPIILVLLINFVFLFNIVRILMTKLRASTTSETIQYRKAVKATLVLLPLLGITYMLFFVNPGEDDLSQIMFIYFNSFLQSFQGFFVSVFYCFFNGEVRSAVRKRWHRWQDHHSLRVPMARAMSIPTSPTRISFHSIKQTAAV
Outline: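 TeloHEAC cells stably expressing human CRF2a (10000 cells/well, suspended in HBSS/20 mM HEPES with 2 mM IBMX) were exposed to compounds for 30 min at 37 °C. cAMP was read as the 665/620 nm fluorescence ratio after 1 h at room temperature. EC50 was derived relative to 100 nM urocortin 2, set as 100%.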

CFR1R receptor = target: T2, CFR1R receptor (Homo sapiens, UniProt P34998); test: Activity at anti-target CFR1R receptor, cAMP assay in CRF1R-overexpression CHO-K1 cells; assay type: cell-based; conditions: 100% = Sauvagine at 100 nM; for EC50: cAMP
T2 construct: host or cells: CHO-K1 (clone 2)
T2 sequence (P34998 24-415): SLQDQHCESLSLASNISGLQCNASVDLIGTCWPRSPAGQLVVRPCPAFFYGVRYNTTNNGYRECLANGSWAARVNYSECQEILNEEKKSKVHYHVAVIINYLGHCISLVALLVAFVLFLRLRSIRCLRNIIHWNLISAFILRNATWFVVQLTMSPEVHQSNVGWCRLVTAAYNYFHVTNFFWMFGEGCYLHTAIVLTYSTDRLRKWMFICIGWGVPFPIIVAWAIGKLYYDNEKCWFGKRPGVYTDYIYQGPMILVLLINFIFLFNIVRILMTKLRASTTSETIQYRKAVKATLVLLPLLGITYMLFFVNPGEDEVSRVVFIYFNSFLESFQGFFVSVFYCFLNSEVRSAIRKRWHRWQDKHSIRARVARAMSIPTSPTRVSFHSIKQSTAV
Outline: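 Grow clone 2 to near confluence at 37° C. under 5% CO2 in F12 (Hams) with 10% FBS and G418, harvest, and freeze in 10% DMSO. Thaw and plate at 4000 cells/well. Then proceed per the TeloHAEC method, normalising to Sauvagine 100 nM as maximum.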

rat CRF2 a = target: T3, rat CRF2 a (Rattus norvegicus, UniProt P47866); test: Activity at rat CRF2 a, cAMP assay in A7R5 rat aortic smooth muscle cells; assay type: cell-based; conditions: 0% HSA, 100% = Sauvagine at 100 nM
T3 construct: host or cells: A7R5 rat aortic smooth muscle cells
T3 sequence (P47866 27-431 isoform P47866-2 limits assumed): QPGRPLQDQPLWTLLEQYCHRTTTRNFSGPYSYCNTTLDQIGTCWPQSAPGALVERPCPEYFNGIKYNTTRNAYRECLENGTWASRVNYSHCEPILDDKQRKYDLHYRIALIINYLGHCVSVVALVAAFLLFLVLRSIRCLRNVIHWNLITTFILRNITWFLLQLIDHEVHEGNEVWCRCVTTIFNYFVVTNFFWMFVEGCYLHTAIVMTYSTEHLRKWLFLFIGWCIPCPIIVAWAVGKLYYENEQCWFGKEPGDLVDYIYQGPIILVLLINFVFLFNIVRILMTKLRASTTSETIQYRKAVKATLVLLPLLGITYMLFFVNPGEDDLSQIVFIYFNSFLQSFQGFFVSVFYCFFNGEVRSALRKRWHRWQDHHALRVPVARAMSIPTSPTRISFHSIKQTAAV
Experimental: The A7R5 rat aortic smooth muscle cell line used in this study was purchased from ATCC.
Cells were grown in a 10 cm dish at 37° C./5% CO2 in medium (DMEM/10% FBS) to near confluence. At that stage, cells were harvested, resuspended to 10 million/mL in culture medium and with 5% DMSO. 1 mL vial aliquots were slowly frozen to −80° C. in isopropanol and then transferred in liquid nitrogen for storage.
These vials were used to run the experiment following the procedure reported in the previous paragraph, except for the compound used in the control well to define the 100% activation (Sauvagine at 100 nM) and the cell density (final cell density: 5000 cells/well).

[1] = In vitro subcutaneous tissue supernatant (SCts) stability and metabolite identification, rat; assay type: in vitro ADME; parameters: remaining at 2 h: dose or concentration left out as unconfirmed; conditions: male, Sprague Dawley; rat subcutaneous tissue supernatant (SCts), 37° C, 2 h
[2] = Chemical stability in buffer (pH 7.4 / pH 4.5), % purity loss; assay type: physicochemical; conditions: 40° C. vs 5° C., 14 or 28 days; for Buffer stability pH 7.4 % purity loss: 100 mM phosphate buffer pH 7.4
Outline: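 LC-UV gave % loss after 14 or 28 days of storage at 5 °C or 40 °C. Samples were diluted supernatants from compound incubated 1 h at room temperature at 10 mg/mL target, in 100 mM acetate pH 4.5 or 100 mM phosphate pH 7.4.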

[3] = Pharmacokinetics in male Sprague Dawley rats after subcutaneous administration; assay type: in vivo; conditions: plasma, rat, SC
[4] = as above; assay type: in vivo; conditions: plasma, rat; for AUC(0-t) / half-life: IV
Rat PLM = conditions: male Sprague Dawley rats, 37° C., up to 2 hours
Human PLM = conditions: 37° C., up to 2 hours
Sprague Dawley rats = test: Effect on systolic blood pressure, telemetry in Sprague Dawley rats; assay type: in vivo, rat; conditions: 0.1 mg/kg SC
Outline: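 Values are % change from a 1 h pre-dose baseline in systolic pressure, tracked by telemetry for up to 48 hours after a single 0.1 mg/kg subcutaneous dose. Rats (Sprague Dawley, n=2 per peptide) carried aortic catheters and recovered at least 10 days post-surgery; duration of action marks the last time point still showing an effect.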

CC[C@H](C)[C@H](NC)C(=O)N[C@H](C(=O)N[C@@H](CC(C)C)C(=O)N[C@@H](CO)C(=O)N[C@@H](CC(C)C)C(=O)N[C@@H](CC(=O)O)C(=O)N[C@@H](C(=O)N1CCC[C@H]1C(=O)N[C@H](C(=O)N[C@@H](CCCCN)C(=O)N[C@@H](CC(C)C)C(=O)N[C@@H](CCCCNC(=O)COCCOCCNC(=O)CC[C@H](NC(=O)CCCCCCCCCCCCCCCCCCC(=O)O)C(=O)O)C(=O)N[C@@H](CCCCN)C(=O)N[C@H](C(=O)N[C@@H](CC(C)C)C(=O)N[C@@H](CC(C)C)C(=O)N[C@@H](CCC(=O)O)C(=O)N[C@@H](CCC(N)=O)C(=O)N[C@@H](CCC(=O)O)C(=O)N[C@@H](CCCCN)C(=O)N[C@@H](CCC(N)=O)C(=O)N[C@@H](CCCCN)C(=O)NC(C)(C)C(=O)N[C@@H](CCC(N)=O)C(=O)N[C@@H](CCCNC(=N)N)C(=O)N[C@@H](CCC(=O)O)C(=O)N[C@@H](CCC(N)=O)C(=O)N[C@@H](C)C(=O)N[C@@H](CCC(=O)O)C(=O)N[C@H](C(=O)N[C@@H](CC(N)=O)C(=O)NC(C)(C)C(=O)N[C@@H](CCC(N)=O)C(=O)N[C@H](C(=O)N[C@@H](CC(C)C)C(=O)N[C@@H](C)C(=O)N[C@@H](CCC(N)=O)C(=O)N[C@H](C(N)=O)C(C)C)[C@@H](C)CC)[C@@H](C)O)[C@@H](C)CC)[C@@H](C)CC)C(C)C)C(C)C [compound 234] (H-[NMeI]VLSLD[dV]PIKLK([AEEA-γGlu-C20 diacid])KILLEQEKQK[Aib]QREQAETN[Aib]QILAQV-NH2)
EC50 (human CRF2a receptor): 0.09 nM
Emax (% I) (CFR1R receptor): 15 % I
EC50 (CFR1R receptor): > 250 nM
EC50 (rat CRF2 a): 0.05 nM
remaining at 2 h [1]: 68%
Buffer stability pH 4.5 % purity loss ([2]; 100 mM acetate buffer pH 4.5): 0.0%
Buffer stability pH 7.4 % purity loss [2]: −0.1%
AUC(0-t) ([3]; 0.05 mg/kg): 2730 ng·h/mL
Cmax ([3]; 0.05 mg/kg): 95 ng/mL
Tmax ([3]; 0.05 mg/kg): 6 h
half-life ([3]; 0.05 mg/kg): 7.5 h
AUC(0-t) ([4]; 0.025 mg/kg): 2700 ng·h/mL
half-life ([4]; 0.025 mg/kg): 7 h

Ac-IVLSLDvPIKLK*KILLEQEKQKKQREQAETN4-PipQILAQV-NH2
not cleaved (Rat PLM): 96% remaining at 2 hours
not cleaved (Human PLM): 104% remaining at 2 hours

CC[C@H](C)[C@H](NC)C(=O)N[C@H](C(=O)N[C@@H](CC(C)C)C(=O)N[C@@H](CO)C(=O)N[C@@H](CC(C)C)C(=O)N[C@@H](CC(=O)O)C(=O)N[C@@H](C(=O)N1CCC[C@H]1C(=O)N[C@H](C(=O)N[C@@H](CCCCN)C(=O)N[C@@H](CC(C)C)C(=O)N[C@@H](CCCCNC(=O)CC[C@H](NC(=O)CCCCCCCCCCCCCCCCC(=O)O)C(=O)O)C(=O)N[C@@H](CCCCN)C(=O)N[C@H](C(=O)N[C@@H](CC(C)C)C(=O)N[C@@H](CC(C)C)C(=O)N[C@@H](CCC(=O)O)C(=O)N[C@@H](CCC(N)=O)C(=O)N[C@@H](CCC(=O)O)C(=O)N[C@@H](CCCCN)C(=O)N[C@@H](CCC(N)=O)C(=O)N[C@@H](CCCCN)C(=O)NC(C)(C)C(=O)N[C@@H](CCC(N)=O)C(=O)N[C@@H](CCCNC(=N)N)C(=O)N[C@@H](CCC(=O)O)C(=O)N[C@@H](CCC(N)=O)C(=O)N[C@@H](C)C(=O)N[C@@H](CCC(=O)O)C(=O)N[C@H](C(=O)N[C@@H](CC(N)=O)C(=O)NC(C)(C)C(=O)N[C@@H](CCC(N)=O)C(=O)N[C@H](C(=O)N[C@@H](CC(C)C)C(=O)N[C@@H](C)C(=O)N[C@@H](CCC(N)=O)C(=O)N[C@H](C(N)=O)C(C)C)[C@@H](C)CC)[C@@H](C)O)[C@@H](C)CC)[C@@H](C)CC)C(C)C)C(C)C [compound 145] (H-[NMeI]VLSLD[dV]PIKLK([γGlu-C18 diacid])KILLEQEKQK[Aib]QREQAETN[Aib]QILAQV-NH2)
EC50 (rat CRF2 a): 0.05 nM
remaining at 2 h [1]: 76%
Buffer stability pH 7.4 % purity loss [2]: 0.0/Not Tested %
AUC(0-t) ([3]; 0.1 mg/kg): 4200 ng·h/mL
Cmax ([3]; 0.1 mg/kg): 295 ng/mL
Systolic blood pressure (Mean) % change from baseline, 8 h (Sprague Dawley rats; 8 h, n=2): −23%
Systolic blood pressure (Mean) % change from baseline, 12 h (Sprague Dawley rats; 12 h, n=2): −21%
Systolic blood pressure (Mean) % change from baseline, 24 h (Sprague Dawley rats; 24 h, n=2): −14%
Duration of action (Sprague Dawley rats; last time point with an effect on BP still observed): >24 h
AUC(0-t) ([4]; 0.05 mg/kg): 4100 ng·h/mL
half-life ([4]; 0.05 mg/kg): 5.8 h
Tmax ([4]; SC, 0.1 mg/kg): 8 h

CC[C@H](C)[C@H](NC)C(=O)N[C@H](C(=O)N[C@@H](CC(C)C)C(=O)N[C@@H](CO)C(=O)N[C@@H](CC(C)C)C(=O)N[C@@H](CC(=O)O)C(=O)N[C@@H](C(=O)N1CCC[C@H]1C(=O)N[C@H](C(=O)N[C@@H](CCCCN)C(=O)N[C@@H](CC(C)C)C(=O)N[C@@H](CCCCNC(=O)CC[C@H](NC(=O)CCCCCCCCCCCCCCCCCCC(=O)O)C(=O)O)C(=O)N[C@@H](CCCCN)C(=O)N[C@H](C(=O)N[C@@H](CC(C)C)C(=O)N[C@@H](CC(C)C)C(=O)N[C@@H](CCC(=O)O)C(=O)N[C@@H](CCC(N)=O)C(=O)N[C@@H](CCC(=O)O)C(=O)N[C@@H](CCCCN)C(=O)N[C@@H](CCC(N)=O)C(=O)N[C@@H](CCCCN)C(=O)N[C@@H](C)C(=O)N[C@@H](CCC(N)=O)C(=O)N[C@@H](CCCNC(=N)N)C(=O)N[C@@H](CCC(=O)O)C(=O)N[C@@H](CCC(N)=O)C(=O)N[C@@H](C)C(=O)N[C@@H](CCC(=O)O)C(=O)N[C@H](C(=O)N[C@@H](CC(N)=O)C(=O)NC(C)(C)C(=O)N[C@@H](CCC(N)=O)C(=O)N[C@H](C(=O)N[C@@H](CC(C)C)C(=O)N[C@@H](C)C(=O)N[C@@H](CCC(N)=O)C(=O)N[C@H](C(N)=O)C(C)C)[C@@H](C)CC)[C@@H](C)O)[C@@H](C)CC)[C@@H](C)CC)C(C)C)C(C)C [compound 217] (H-[NMeI]VLSLD[dV]PIKLK([γGlu-C20 diacid])KILLEQEKQKAQREQAETN[Aib]QILAQV-NH2)
EC50 (human CRF2a receptor): 0.09 nM
Emax (% I) (CFR1R receptor): 33 % I
EC50 (CFR1R receptor): > 250 nM
EC50 (rat CRF2 a): 0.06 nM
remaining at 2 h [1]: 76%
Buffer stability pH 7.4 % purity loss [2]: 1.8/Not Tested %
AUC(0-t) ([3]; 0.05 mg/kg): 4040 ng·h/mL
Cmax ([3]; 0.05 mg/kg): 138 ng/mL
Tmax ([3]; 0.05 mg/kg): 8 h
half-life ([3]; 0.05 mg/kg): 12 h
AUC(0-t) ([4]; 0.025 mg/kg): 4120 ng·h/mL
half-life ([4]; 0.025 mg/kg): 8 h
